Experimental data reported in US20110230472A1, “RING-FUSED AZOLE DERIVATIVE HAVING PI3K-INHIBITING ACTIVITY” (Shionogi & Co., Ltd., priority 2008, published 2011).

Columns and labels:
PI-3 kinase γ = PI-3 kinase γ (Homo sapiens, UniProt P48736); test: PI3Kγ inhibitory activity, PI3-kinase HTRF assay (inhibition ratio); type: biochemical; conditions: 0.5 h; for inhibition at 50 µM: compound at 50 μM
Summary of the method: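 PI3Kγ preincubated 10 min with compound and PIP2 substrate (MgCl2, DTT), then ATP added for 30 min at room temperature. PIP3 detected by HTRF (665/620 nm ratio) after 18 h. Inhibition ratio at 50 or 10 μmol/L, normalised to no-compound and no-enzyme controls.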

[1] = target: T1, human ether-a-go-go related gene (hERG) channel (Homo sapiens, UniProt Q12809); test: hERG test, whole-cell patch-clamp; type: cell-based; conditions: HEK293 cell expressing hERG; applied for 10 minutes; concentration not given
T1 construct: expressed in transfected cells; host or cells: HEK293
From the text: For the purpose of risk evaluation of QT interval extension of electrocardiogram, the activity on delayed rectification K^+ current (IKr), which plays an important role in a cardiac ventricle repolarization process, was examined using the HEK293 cell that was made to express human ether-a-go-go related gene (hERG) channel.
Using an automatic patch-clamp system (PatchXpress 7000A, Axon Instruments Inc.), by a whole-cell patch-clamp method, after the cell was maintained at a membrane potential of −80 mV, IKr induced upon applying depolarizing stimulation of +50 mV for 2 seconds and further applying repolarizing stimulation of −50 mV for 2 seconds was recorded. After generated electric current became stable, a test substance dissolved at an intended concentration in extracellular fluid (137 mmol/L NaCl, 4 mmol/L KCl, 1.8 mmol/L CaCl2.2H2O, 1 mmol/L MgCl2.6H2O, 10 mmol/L glucose, 10 mmol/L HEPES (4-(2-hydroxyethyl)-1-piperazineethanesulfonic acid), pH=7.4) was applied to the cell for 10 minutes under room temperature condition. From the obtained IKr, the absolute value of the maximum tail current was measured using analysis software (DataXpress ver. 1, Molecular Devices Corporation) and the value of the electric current in a maintained membrane potential as baseline. Moreover, an inhibition ratio for the maximum tail current prior to the application of the test substance was calculated and then compared with a group of media-application (0.1% dimethylsulfoxide solution) to evaluate influence of the test substance on IKr.

CYP2C19 = target: T2, CYP2C19 (Homo sapiens, UniProt P33261); test: CYP inhibition test, pooled human liver microsome, CYP2C19; type: in vitro ADME; conditions: 4′-hydroxylation of mephenyloin
T2 construct: enzyme: pooled human liver microsome 0.2 mg protein/mL; from tissue; host or cells: pooled human liver microsome
T2 sequence (P33261 whole entry): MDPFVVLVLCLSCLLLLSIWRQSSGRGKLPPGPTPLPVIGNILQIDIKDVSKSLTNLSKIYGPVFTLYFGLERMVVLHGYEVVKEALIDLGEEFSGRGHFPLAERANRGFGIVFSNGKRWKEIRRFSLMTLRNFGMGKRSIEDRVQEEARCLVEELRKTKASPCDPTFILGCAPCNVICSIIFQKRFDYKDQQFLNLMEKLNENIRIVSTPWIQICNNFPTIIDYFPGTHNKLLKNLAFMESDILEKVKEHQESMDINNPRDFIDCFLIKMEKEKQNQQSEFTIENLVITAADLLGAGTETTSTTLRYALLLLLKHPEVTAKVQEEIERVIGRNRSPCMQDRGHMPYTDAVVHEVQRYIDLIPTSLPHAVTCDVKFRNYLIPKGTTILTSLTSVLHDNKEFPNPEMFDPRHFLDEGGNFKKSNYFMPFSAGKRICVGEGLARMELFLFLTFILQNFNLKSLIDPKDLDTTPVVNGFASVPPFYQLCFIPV

T1 sequence (Q12809 whole entry): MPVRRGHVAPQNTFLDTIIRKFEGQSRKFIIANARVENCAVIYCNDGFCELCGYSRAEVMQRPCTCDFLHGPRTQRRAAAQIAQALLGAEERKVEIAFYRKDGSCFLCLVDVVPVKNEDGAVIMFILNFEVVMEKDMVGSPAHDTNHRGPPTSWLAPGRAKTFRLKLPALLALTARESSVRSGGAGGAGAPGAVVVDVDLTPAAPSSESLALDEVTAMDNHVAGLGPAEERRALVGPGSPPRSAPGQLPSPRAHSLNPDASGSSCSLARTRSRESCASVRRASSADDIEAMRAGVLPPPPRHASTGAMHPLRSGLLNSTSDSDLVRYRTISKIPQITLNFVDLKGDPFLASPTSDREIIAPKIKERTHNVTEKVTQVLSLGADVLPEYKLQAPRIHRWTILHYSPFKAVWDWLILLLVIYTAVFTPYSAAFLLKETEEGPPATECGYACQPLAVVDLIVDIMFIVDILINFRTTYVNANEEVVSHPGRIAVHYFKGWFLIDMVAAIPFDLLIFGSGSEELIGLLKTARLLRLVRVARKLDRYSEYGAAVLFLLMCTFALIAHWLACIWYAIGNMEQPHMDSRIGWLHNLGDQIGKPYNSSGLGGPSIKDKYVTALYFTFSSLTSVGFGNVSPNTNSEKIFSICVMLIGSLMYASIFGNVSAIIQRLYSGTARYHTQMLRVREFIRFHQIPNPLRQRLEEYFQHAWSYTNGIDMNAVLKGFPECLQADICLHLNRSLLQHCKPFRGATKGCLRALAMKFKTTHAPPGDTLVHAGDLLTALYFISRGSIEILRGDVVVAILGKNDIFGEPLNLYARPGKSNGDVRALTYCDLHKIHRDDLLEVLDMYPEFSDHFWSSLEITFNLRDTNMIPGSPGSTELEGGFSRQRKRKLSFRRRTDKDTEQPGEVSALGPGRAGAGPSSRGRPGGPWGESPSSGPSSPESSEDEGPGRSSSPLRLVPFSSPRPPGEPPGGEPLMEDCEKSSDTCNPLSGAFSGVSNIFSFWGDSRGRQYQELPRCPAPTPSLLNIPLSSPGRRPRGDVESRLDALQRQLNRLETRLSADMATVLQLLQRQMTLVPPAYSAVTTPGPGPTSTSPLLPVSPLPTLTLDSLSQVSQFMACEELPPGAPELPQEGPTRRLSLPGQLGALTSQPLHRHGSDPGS
Sequence of PI-3 kinase γ (P48736 whole entry): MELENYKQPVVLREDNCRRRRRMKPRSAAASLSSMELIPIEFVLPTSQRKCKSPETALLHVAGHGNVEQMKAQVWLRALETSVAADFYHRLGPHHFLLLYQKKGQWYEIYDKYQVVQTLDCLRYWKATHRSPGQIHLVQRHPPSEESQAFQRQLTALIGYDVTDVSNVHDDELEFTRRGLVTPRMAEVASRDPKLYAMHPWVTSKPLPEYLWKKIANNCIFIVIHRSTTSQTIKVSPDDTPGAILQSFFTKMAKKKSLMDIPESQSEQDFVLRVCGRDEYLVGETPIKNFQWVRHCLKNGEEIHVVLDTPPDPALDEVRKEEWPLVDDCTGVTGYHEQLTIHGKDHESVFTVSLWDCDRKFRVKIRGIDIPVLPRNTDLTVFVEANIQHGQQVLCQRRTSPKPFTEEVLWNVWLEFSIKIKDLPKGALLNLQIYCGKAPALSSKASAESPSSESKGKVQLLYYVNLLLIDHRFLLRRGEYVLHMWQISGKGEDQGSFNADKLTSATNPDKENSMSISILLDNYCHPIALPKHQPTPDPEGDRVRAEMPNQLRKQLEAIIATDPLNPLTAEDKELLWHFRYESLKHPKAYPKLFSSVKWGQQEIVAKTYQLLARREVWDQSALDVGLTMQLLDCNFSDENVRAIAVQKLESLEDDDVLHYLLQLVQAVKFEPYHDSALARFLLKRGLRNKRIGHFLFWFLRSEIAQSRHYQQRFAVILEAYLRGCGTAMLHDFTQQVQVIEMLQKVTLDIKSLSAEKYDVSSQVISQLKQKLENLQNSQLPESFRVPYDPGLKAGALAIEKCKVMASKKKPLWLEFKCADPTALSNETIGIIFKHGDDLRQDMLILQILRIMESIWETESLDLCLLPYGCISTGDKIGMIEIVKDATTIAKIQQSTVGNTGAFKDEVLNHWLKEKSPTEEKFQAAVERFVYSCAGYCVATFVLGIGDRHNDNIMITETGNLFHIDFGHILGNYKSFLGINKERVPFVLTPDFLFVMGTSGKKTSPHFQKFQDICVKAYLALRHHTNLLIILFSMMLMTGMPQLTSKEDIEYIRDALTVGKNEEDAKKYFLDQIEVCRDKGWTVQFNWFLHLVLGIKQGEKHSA

## CNC(=O)Nc1cc2n(n1)CCN2c1ccc(S(C)(=O)=O)cc1 [Compound I-89]
PI-3 kinase γ; PI3Kγ
  inhibition at 50 µM: ≥ 95%
[1]
  inhibition ratio for the maximum tail current (IKr): < 0.5%
CYP2C19
  IC50: > 20 µM

## CN1CCc2cc(N3CCn4nc(NC(=O)c5cccnc5)cc43)ccc2C1=O [Compound I-347]
PI-3 kinase γ; compound at 10 μmol/L
  inhibition at 10 µM: 91%
[1]
  inhibition ratio for the maximum tail current (IKr): 6%
CYP2C19
  IC50: > 20 µM

## COc1cc(N2CCc3nc(NC(=O)NCc4cc(=O)[nH]o4)sc3C2)nc(OC)n1 [Compound I-279]
PI-3 kinase γ; PI3Kγ, compound at 10 μM
  inhibition at 10 µM: ≥ 95%
[1]
  inhibition ratio for the maximum tail current (IKr): 5%
CYP2C19
  IC50: > 20 µM

## CNC(=O)Nc1nc2c(s1)CN(c1cc(Cl)nc(N)n1)CC2 [Compound I-118]
PI-3 kinase γ; PI3Kγ
  inhibition at 50 µM: ≥ 95%
[1]
  inhibition ratio for the maximum tail current (IKr): 8.4%
CYP2C19
  IC50: > 20 µM

## COc1cc(N2CCc3nc(NC(=O)NCC(=O)O)sc3C2)nc(OC)n1 [Compound I-208]
PI-3 kinase γ; PI3Kγ
  inhibition at 50 µM: 93%
[1]
  inhibition ratio for the maximum tail current (IKr): 2.7%
CYP2C19
  IC50: > 20 µM

## CNC(=O)Nc1nc2c(s1)CN(c1ccnc(OC)n1)CC2 [Compound I-142]
PI-3 kinase γ; PI3Kγ
  inhibition at 50 µM: ≥ 95%
CYP2C19
  IC50: > 20 µM

## CN1CCc2cc(N3CCn4nc(NC(=O)c5ccco5)cc43)ccc2C1=O [Compound I-358]
PI-3 kinase γ; compound at 10 μmol/L
  inhibition at 10 µM: ≥ 95%
CYP2C19
  IC50: > 20 µM

## CNC(=O)Nc1cc2n(n1)CCN2c1cc(C(=O)N2CCOCC2)cc(-c2ccc(N)nc2)c1 [Compound I-200]
PI-3 kinase γ; PI3Kγ
  inhibition at 50 µM: ≥ 95%
[1]
  inhibition ratio for the maximum tail current (IKr): 7.3%
CYP2C19
  IC50: > 20 µM
